Measurements reported in US20220041641A1, “QUATERNARY AMMONIUM SALTS AS INHIBITORS OF TRIMETHYLAMINE PRODUCTION” (Senda Biosciences, Inc., priority 2018, published 2022).

Key:
[1] = system: enzymatic activity in fecal matter; assay: Inhibition of enzymatic activity in fecal matter; format: cell-based; details: d9-choline 1 mM, 16 hours at 37° C., anaerobic, d9-TMA by LCMS
Description: Inhibition of enzymatic activity in fecal matter was determined by adding a substrate (d9-choline, 1 mM final concentration) and a compound in a range of concentrations in order to determine an IC50. After incubation for a designated 16 hours at 37° C. in anaerobic conditions, samples were be prepared for LCMS analysis, and the amount of d9-TMA produced was determined using LCMS analysis as in the Examples above.

[2] = format: in vitro ADME; details: simulated gi fluid, 1 µM, pH 1.6
Description: This assay was used to assess the stability of a conjugate in a stomach.
Medium was prepared by dissolving 2 g of sodium chloride in 0.6 L in ultrapure water (MilliQ®, Millipore Sigma, Darmstadt, Germany). The pH was adjusted to 1.6 with 1N hydrochloric acid, and the volume was then adjusted to 1 L with purified water.
60 mg FaSSIF powder (Biorelevant™, London, UK) were dissolved in 500 mL buffer (above). Pepsin was added (0.1 mg/mL) (Millipore Sigma, Darmstadt, Germany), and the solution was stirred. The resulting SGF media were used fresh for each experiment.
(§1) Test compounds were dissolved in DMSO stock to 1 mM. An aliquot of the DMSO stock solution was removed and diluted in the SGF Media in 15 mL falcon tubes to generate a total compound concentration of 1 μM. A 1 mL aliquot was immediately removed and diluted once with 1 volume of acetonitrile for T0 timepoint. The mixture was sealed and mixed at 37° C. in an incubator. Aliquots (1 mL) were removed at regular intervals and immediately quenched by the addition of 1 volume of acetonitrile. The resulting samples were analyzed by LCMS to determine degradation rates in SGF.

[3] = Caco-2 permeability assay; format: in vitro ADME; details: human, Caco-2, pH 7.4
[4] = format: in vitro ADME; details: simulated gi fluid, 1 µM, pH 6.7
Description: This assay was used to assess the stability of a conjugate in a small intestine.
Phosphate buffer was prepared by dissolving 0.42 g of sodium hydroxide pellets and 3.95 g of monobasic sodium phosphate monohydrate and 6.19 g of sodium chloride in ultrapure water (MilliQ®, Millipore Sigma, Darmstadt, Germany). The pH was adjusted to 6.7 using aq. HCl and aq. NaOH, as necessary, and the solution was diluted with ultrapure water to produce 1 L of the pH 6.7 buffer.
112 mg FaSSIF powder (Biorelevant™, London, UK) was dissolved in 50 mL of the pH 6.7 buffer. 2 to 3 mL of the resulting solution were then added to 500 mg pancreatin (Millipore Sigma, Darmstadt, Germany). The resulting mixture was agitated by finger tapping the vessel containing the mixture until milky suspension formed. At this time, the remainder of the 50 mL FaSSiF/pH 6.7 buffer solution was added. The resulting suspension was flipped upside down 10 times to produce SIF, which was used fresh.
as §1, with “SIF media” for “SGF Media”, “produce” for “generate”, “mixture with a tested” for “total”, “agitated” for “mixed”, “rates.” for “rates in SGF.”

Structure (SMILES): CC(=O)OC[C@H]1O[C@@H](OCC[N+](C)(C)C2CC2)[C@H](OC(C)=O)[C@@H](OC(C)=O)[C@@H]1OC(C)=O.[I-] [Compound 80, N,N-dimethyl-N-(2-{[(3R,4S,5R,6R)-3,4,5-tris(acetyloxy)-6-[(acetyloxy)methyl]oxan-2-yl]oxy}ethyl)cyclopropanaminium Iodide]
- IC50 [1]: 380 nM
- Assay 1- FaSSGF Stability: % Remaining at 1 hr [2]: 145.32%
- Papp A→B at 2 h, 1 µM [3]: 0.28 ×10⁻⁶ cm/s
- Papp B→A at 2 h, 1 µM [3]: 0.313 ×10⁻⁶ cm/s
- Assay 2- FaSSIF Stability: % Remaining at 4 hr [4]: 99.34%
